Assay results as given in US10730885B1, “Coumarin derivatives” (KING SAUD UNIVERSITY, priority 2019, dated 2020).
In brackets after ≈: the same amount, converted by molar mass. Where two headings read alike, the source gives them in different places.

Legend:
[1] = tested on: Bacillus megaterium ATCC 9885; assay: Agar well diffusion, primary antimicrobial screening; type: cell-based; settings: Priestia megaterium, ATCC9885; B. megaterium ATCC 9885; 100 μL of 10 mg/ml in DMSO, 24 h; read-out: Inhibition Diameter Zone BM
From the text: (§1) The newly synthesized compounds were individually tested for their in vitro antimicrobial activity against the standard bacteria strains of American Type Culture Collection (ATCC), namely, Staphylococcus aureus ATCC 29213, Bacillus subtilis ATCC 6633, Bacillus megaterium ATCC 9885 (Gram-positive), Escherichia coli ATCC 2592 and Pseudomonas aeruginosa ATCC 27953 (Gram-negative). In addition, they were microbiologically tested against the locally isolated Saccharomyces cerevisiae (yeast) and the standard strain of Agricultural Research Service Culture Collection (NRRL) of the yeast like pathogenic fungus Candida albicans NRRL Y-477. The primary screening was carried out using the agar well diffusion method using nutrient agar (NA) medium and Sabourand dextrose agar (SDA) medium for pathological tested bacteria and yeast, respectively.
(§2) Antimicrobial tests were carried out by the agar well diffusion method using 100 μL of suspension containing 1×10^8 CFU/mL of pathological tested bacteria and 1×10^6 CFU/ml of yeast spread on NA and SDA, respectively. After the media was cooled and solidified, wells (10 mm in diameter) were made in the solidified agar and loaded with 100 μL of tested compound solution prepared by dissolving 10 mg of the chemical compound in one ml of dimethyl sulfoxide (DMSO). The inculcated plates were then incubated for 24 h at 37° C. for bacteria and yeast. Negative controls were prepared using DMSO employed for dissolving the tested compound. Ciprofloxacin (10 mg/ml) and ketoconazole (10 mg/ml) were used as standard for antibacterial and antifungal activity, respectively. After incubation time, antimicrobial activity was evaluated by measuring the zone of inhibition against the test organisms and compared with that of the standard. Antimicrobial activities were expressed as inhibition diameter zones in millimeters (mm). The experiment was carried out in triplicate and the average zone of inhibition was calculated.

[2] = tested on: Bacillus subtilis ATCC 6633; assay: as above; type: cell-based; settings: for zone of inhibition at 10000 µg/mL: Bacillus subtilis, ATCC6633, B. subtilis ATCC 6633, 100 μL of 10 mg/ml in DMSO, 24 h, read-out: Inhibition Diameter Zone BS; for antibacterial activity compared with reference drug: B. subtilis
From the text: as §1, §2

[3] = DPPH microplate radical scavenging antioxidant assay; type: biochemical; settings: for IC50: DPPH, 30 min, mean ± SD (n = 3); for antioxidant activity: overview
Experimental: The antioxidant activity of the synthesized compounds was measured in terms of hydrogen-donating or radical scavenging ability using the DPPH microplate-based method. Absorbance measurement was obtained using Microplate/cuvette reader (Spectramax M5, Molecular Devices, California, USA). Reference standard compound ascorbic acid was used as the positive control for this assay at concentrations ranging from 1.563 to 200 μg/mL. Test samples were prepared at a starting concentration of 200 μg/mL after mixing with 100 μl of 0.2 mM DPPH methanolic solution. A series of concentrations were tested for the samples in order to determine the 50% inhibitory concentration (IC50). Samples were incubated with DPPH in the dark for 30 min at room temperature (25° C.). The DPPH solution in methanol was prepared daily and stored in a flask covered with aluminum foil. DPPH radicals have an absorption maximum (λmax) at 515 nm, in which the absorbance values were measured and converted into percentage of antioxidant activity.
Methanolic DPPH solution without antioxidant was applied as control and background control was samples in methanol only. IC50 was determined using Graphpad Prism 7 (Graphpad Software Inc. CA, USA). The percentage inhibition was calculated by using the formula:
The assay was carried out in triplicate and performed as much as possible in an area protected against light. The data points are presented as the mean±standard deviation (SD) (n=3).

trypsin = assay: Proteinase inhibitory activity (trypsin/casein); type: biochemical; settings: for % Inhibition of proteinase activity: 250 μg/ml, mean ± SD (n = 3)
Experimental: For proteinase inhibitory activity, the reaction mixture (2 ml) contained 0.06 mg trypsin, 20 mM Tris HCl buffer (pH 7.4) and 1 ml test sample (250 μg/ml for each compound). The mixture was incubated for 5 min and then 1 ml of 0.8% (w/v) casein was added. The mixture was incubated for an additional 20 min. 1 ml of 10% perchloric acid was added to arrest the reaction. The cloudy suspension was centrifuged, and the absorbance of the supernatant was read at 280 nm. Reference standard compound aspirin was used as the positive control for this assay. The experiment was performed in triplicate. Percentage inhibition of […] was calculated by using the following formula:
[formula] where Acontrol is the absorbance of the control reaction and Atest is the absorbance of the control reaction with sample.

[4] = tested on: Candida albicans NRRL Y-477; assay: Agar well diffusion, primary antimicrobial screening; type: cell-based; settings: for zone of inhibition at 10000 µg/mL: Candida albicans, NRRLY477, C. albicans NRRL Y-477, 100 μL of 10 mg/ml in DMSO, 24 h, read-out: Inhibition Diameter Zone CA; for antifungal activity compared with reference drug: C. albicans
From the text: as §1, §2

[5] = tested on: Saccharomyces cerevisiae (local isolate); assay: as above; type: cell-based; settings: for zone of inhibition at 10000 µg/mL: Saccharomyces cerevisiae, 24 h, read-out: Inhibition Diameter Zone SC
From the text: as §1, §2

[6] = tested on: Staphylococcus aureus ATCC 29213; assay: as above; type: cell-based; settings: S. aureus
From the text: as §1, §2

tested microorganisms = assay: Agar well diffusion, summary over the tested microorganisms; type: cell-based; settings: against one or more microorganisms
From the text: as §1, §2

[7] = tested on: Escherichia coli ATCC 2592; assay: Agar well diffusion, primary antimicrobial screening; type: cell-based; settings: E. coli
From the text: as §1, §2

[8] = S. cerevisiae local isolate, 100 μL of 10 mg/ml in DMSO

| Compound | IC50 [3] | melting point [°C] | % Inhibition of proteinase activity (trypsin) [%] | also measured |
| --- | --- | --- | --- | --- |
| Cc1ccc2oc(=O)c3c(c2c1)OC(N)=C(C(N)=O)C3c1ccco1 (racemic) [Compound 6b, (±)-2-amino-4-(furan-2-yl)-9-methyl-5-oxo-4H,5H-pyrano[3,2-c]chromene-3-carboxamide] | 48.38 ± 4.61 µg/mL (≈ 143 µM) | 202 to 204 |  | zone of inhibition at 10000 µg/mL [1]: < 15 mm; zone of inhibition at 10000 µg/mL [2]: < 15 mm; in vitro anti-proteinase activity compared with aspirin (trypsin): more potent; % Inhibition of proteinase activity (trypsin; listed as 6h): 49.28 ± 10.93% |
| Cc1ccc2oc(=O)c3c(c2c1)OC(N=CN(C)C)=C(C#N)C3c1ccco1 (racemic) [Compound 7b, (±)-N′-(3-cyano-4-(furan-2-yl)-9-methyl-5-oxo-4H,5H-pyrano[3,2-c]chromen-2-yl)-N,N-dimethylformimidamide] | — ((—): inactive (IC50 > 200 μg/mL)) | 273 to 275 | 33.17 ± 2.79 | zone of inhibition at 10000 µg/mL [4]: < 15 mm; zone of inhibition at 10000 µg/mL [1]: < 15 mm; zone of inhibition at 10000 µg/mL [5]: < 15 mm; zone of inhibition at 10000 µg/mL [2]: < 15 mm |
| Cc1ccc2oc(=O)c3c(c2c1)OC(N=Cc1ccccc1)=C(C#N)C3c1ccco1 (racemic) [Compound 8b, (±)-2-(benzylideneamino)-4-(furan-2-yl)-9-methyl-5-oxo-4H,5H-pyrano[3,2-c]chromene-3-carbonitrile] |  | 250 to 252 |  |  |
| O=C1O[C@H]([C@@H](O)CO)C(O)=C1O [Ascorbic acid, ascorbic acid, reference compound] | 2.83 ± 0.166 µg/mL (≈ 16.1 µM) |  |  |  |
| CC(=O)Oc1ccccc1C(=O)O [Aspirin, aspirin, reference compound] |  |  | 45.83 ± 4.21 |  |
| O=C(O)c1cn(C2CC2)c2cc(N3CCNCC3)c(F)cc2c1=O [Ciprofloxacin, reference compound] |  |  |  | zone of inhibition at 10000 µg/mL [4]: < 15 mm; zone of inhibition at 10000 µg/mL [5, 8]: < 15 mm |
| NS(=O)(=O)c1ccc(NS(=O)(=O)c2c(O)c3cc(Cl)ccc3oc2=O)cc1 [Compound 10a, 6-Chloro-4-hydroxy-2-oxo-N-(4-sulfamoylphenyl)-2H-chromene-3-sulfonamide] | 93.12 ± 0.727 µg/mL (≈ 216 µM) | 245 to 247 | 18.78 ± 2.05 | antibacterial activity compared with ciprofloxacin [6]: equal to ciprofloxacin; antibacterial activity compared with reference drug [2]: comparable antibacterial activities to the standard; antimicrobial activity compared with standard antimicrobials (ciprofloxacin and ketoconazole) (tested microorganisms): equal to or higher than the standard antimicrobials |
| O=c1oc2ccc(Cl)cc2c(O)c1S(=O)(=O)Nc1ccc(S(=O)(=O)Nc2nccs2)cc1 [Compound 10e, 6-chloro-4-hydroxy-2-oxo-N-(4-(N-(thiazol-2-yl)sulfamoyl)phenyl)-2H-chromene-3-sulfonamide] | 71.67 ± 3.231 µg/mL (≈ 139 µM) | 215 to 217 |  |  |
| O=c1oc2ccc(Cl)cc2c(O)c1S(=O)(=O)Nc1ccccc1 [Compound 11a, 6-Chloro-4-hydroxy-2-oxo-N-phenyl-2H-chromene-3-sulfonamide] | 14.51 ± 1.827 µg/mL (≈ 41.2 µM) | 337 to 339 | 44.7 ± 8.22 | antifungal activity compared with reference drug [4]: higher antifungal activity; antimicrobial activity compared with standard antimicrobials (ciprofloxacin and ketoconazole) (tested microorganisms): equal to or higher than the standard antimicrobials; antioxidant activity [3]: particularly high antioxidant activity; in vitro anti-proteinase activity compared with aspirin (trypsin): as potent |
| Cc1ccc2oc(=O)c(S(=O)(=O)Nc3ccccc3)c(O)c2c1 [Compound 11b, 4-Hydroxy-6-methyl-2-oxo-N-phenyl-2H-chromene-3-sulfonamide] | 19.25 ± 4.171 µg/mL (≈ 58.1 µM) | 324 to 325 | 14.3 ± 2.21 | antioxidant activity [3]: particularly high antioxidant activity |
| Cc1ccc2oc(=O)c(S(=O)(=O)Nc3ccc(C(=O)/C=C/c4ccc(Cl)cc4)cc3)c(O)c2c1 [Compound 12d, (E)-N-(4-(3-(4-chlorophenyl)acryloyl)phenyl)-4-hydroxy-6-methyl-2-oxo-2H-chromene-3-sulfonamide] | — ((—): inactive (IC50 > 200 μg/mL)) | 141 to 143 | 31.88 ± 3.82 | antifungal activity compared with reference drug [4]: higher antifungal activity; antibacterial activity compared with ciprofloxacin [7]: higher antibacterial activity than ciprofloxacin; antimicrobial activity compared with ketoconazole ([5]; S. cerevisiae): higher than that of the corresponding control drug; zone of inhibition at 10000 µg/mL [5, 8]: 32 mm; antibacterial activity compared with ciprofloxacin [6]: equal to ciprofloxacin; antibacterial activity compared with reference drug [2]: comparable antibacterial activities to the standard; antimicrobial activity compared with standard antimicrobials (ciprofloxacin and ketoconazole) (tested microorganisms): equal to or higher than the standard antimicrobials |

Further lines, with some results ahead:

| IC50 [3] | melting point [°C] | Compound | % Inhibition of proteinase activity (trypsin) [%] | also measured |
| --- | --- | --- | --- | --- |
| — ((—): inactive (IC50 > 200 μg/mL)) | 220 to 222 | Cc1ccc2oc(=O)c(S(=O)(=O)Nc3ccc(C(=O)/C=C/c4ccc([N+](=O)[O-])cc4)cc3)c(O)c2c1 [Compound 12b, (E)-4-hydroxy-6-methyl-N-(4-(3-(4-nitrophenyl)acryloyl)phenyl)-2-oxo-2H-chromene-3-sulfonamide] |  |  |
| — ((—): inactive (IC50 > 200 μg/mL)) | > 300 | COc1ccc(/C=C/C(=O)c2ccc(NS(=O)(=O)c3c(O)c4cc(Cl)ccc4oc3=O)cc2)cc1 [Compound 12e, (E)-6-chloro-4-hydroxy-N-(4-(3-(4-methoxyphenyl)acryloyl)phenyl)-2-oxo-2H-chromene-3-sulfonamide] | 22.83 ± 4.88 |  |
| — ((—): inactive (IC50 > 200 μg/mL)) | > 300 | COc1ccc(/C=C/C(=O)c2ccc(NS(=O)(=O)c3c(O)c4cc(C)ccc4oc3=O)cc2)cc1 [Compound 12f, (E)-4-hydroxy-N-(4-(3-(4-methoxyphenyl)acryloyl)phenyl)-6-methyl-2-oxo-2H-chromene-3-sulfonamide] | 21.7 ± 7.6 |  |
